Results: ChEMBL document CHEMBL3351901 (Bioorg Med Chem, 2014)
Positions count from the first letter of the chain named.

How the values were obtained:
[1] = target: T1, Aldo-keto reductase family 1 member C3 (Homo sapiens, UniProt P42330)
T1 sequence (P42330 whole entry): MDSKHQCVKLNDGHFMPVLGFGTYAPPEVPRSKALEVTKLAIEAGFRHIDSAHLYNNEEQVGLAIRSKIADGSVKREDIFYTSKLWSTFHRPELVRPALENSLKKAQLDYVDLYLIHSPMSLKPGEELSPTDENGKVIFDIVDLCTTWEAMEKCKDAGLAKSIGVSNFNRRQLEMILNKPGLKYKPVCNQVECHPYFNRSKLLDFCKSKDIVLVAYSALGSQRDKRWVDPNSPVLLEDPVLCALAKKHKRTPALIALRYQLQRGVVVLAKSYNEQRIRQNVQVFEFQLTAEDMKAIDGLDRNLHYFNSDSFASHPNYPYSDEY
Description: Inhibition of AKR1C3 (unknown origin) assessed as dehydrogenase activity of enzyme by NADPH fluorescence assay

[2] = target: T2, Aldo-keto reductase family 1 member C1 (Homo sapiens, UniProt Q04828); assay: Inhibition of AKR1C1 (unknown origin) assessed as dehydrogenase activity of enzyme by NADPH fluorescence assay
T2 sequence (Q04828 whole entry): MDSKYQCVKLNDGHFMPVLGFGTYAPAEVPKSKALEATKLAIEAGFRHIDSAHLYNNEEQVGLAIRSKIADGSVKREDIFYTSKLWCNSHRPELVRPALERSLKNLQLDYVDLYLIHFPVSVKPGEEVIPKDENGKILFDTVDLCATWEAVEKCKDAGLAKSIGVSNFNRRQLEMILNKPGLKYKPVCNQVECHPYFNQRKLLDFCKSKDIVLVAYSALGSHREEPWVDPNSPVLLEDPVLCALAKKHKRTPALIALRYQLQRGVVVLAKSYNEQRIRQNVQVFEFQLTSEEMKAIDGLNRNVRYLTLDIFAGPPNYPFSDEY

[3] = target: T3, Aldo-keto reductase family 1 member C2 (Homo sapiens, UniProt P52895); assay: Inhibition of AKR1C2 (unknown origin) assessed as dehydrogenase activity of enzyme by NADPH fluorescence assay
T3 sequence (P52895 whole entry): T2 sequence (Q04828 whole entry) with T38V, R47H, L54V, C87S, V151M, R170H, Q172L

[4] = target: T4, Aldo-keto reductase family 1 member C4 (Homo sapiens, UniProt P17516); assay: Inhibition of AKR1C4 (unknown origin) assessed as dehydrogenase activity of enzyme by NADPH fluorescence assay
T4 sequence (P17516 whole entry): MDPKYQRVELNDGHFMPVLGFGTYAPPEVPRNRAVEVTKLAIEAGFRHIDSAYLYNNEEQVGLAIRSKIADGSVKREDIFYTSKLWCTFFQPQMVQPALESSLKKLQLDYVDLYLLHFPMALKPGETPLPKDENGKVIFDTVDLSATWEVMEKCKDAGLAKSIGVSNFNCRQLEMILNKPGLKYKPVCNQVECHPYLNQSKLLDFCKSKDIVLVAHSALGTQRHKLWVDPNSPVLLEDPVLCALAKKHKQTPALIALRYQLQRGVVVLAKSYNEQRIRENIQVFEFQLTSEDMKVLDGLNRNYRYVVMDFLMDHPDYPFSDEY

[5] = target: T1, Aldo-keto reductase family 1 member C3; assay: Inhibition of AKR1C3-mediated androsterone metabolism in human A549 cells assessed as 5alpha-androstane-3alpha, 17beta-diol after 24 hrs by LC/MS analysis; type: cell-based

Structure (SMILES) | IC50 [1] | other results
O=C(O)/C=C/c1ccc(OC(=O)CCc2ccc(O)cc2)c(OCc2cccc(F)c2)c1 | 840 nM | –
O=C(O)/C=C/c1ccc(OC(=O)CCc2cccc(F)c2)c(OCc2cccc(F)c2)c1 | 400 nM | –
COc1cc(/C=C/C(=O)O)ccc1OC(=O)CCc1ccccc1 | 4500 nM | –
Cc1ccc(COc2cc(/C=C/C(=O)O)ccc2OC(=O)CCc2ccc(O)cc2)cc1 | 770 nM | –
O=C(O)/C=C/c1ccc(OC(=O)CCc2ccccc2)c(OCc2cc(F)cc(F)c2)c1 | 360 nM | –
C=C(C)COc1cc(/C=C/C(=O)O)ccc1OC(=O)CCc1ccccc1 | 850 nM | –
O=C(O)/C=C/c1ccc(OC(=O)CCc2ccccc2)c(OCc2cccc(O)c2)c1 | 20 nM | IC50 [2]: 81000 nM; IC50 [3]: > 100000 nM; IC50 [4]: 20000 nM; IC50 [5]: 8000 nM
O=C(O)/C=C/c1ccc(OC(=O)CCc2c(F)cc(F)cc2F)c(OCc2cccc(F)c2)c1 | 580 nM | –
O=C(O)/C=C/c1ccc(OC(=O)CCc2ccccc2)c(OCc2ccc(Cl)cc2)c1 | 890 nM | –
CC(C)Oc1cc(/C=C/C(=O)O)ccc1OC(=O)CCc1ccccc1 | 3100 nM | –
O=C(O)/C=C/c1ccc(OC(=O)CCc2ccccc2)c(OCCc2ccccc2)c1 | 570 nM | –
COc1cccc(COc2cc(/C=C/C(=O)O)ccc2OC(=O)CCc2ccccc2)c1 | 960 nM | IC50 [2]: > 100000 nM; IC50 [3]: > 100000 nM; IC50 [4]: > 100000 nM
CCCOc1cc(/C=C/C(=O)O)ccc1OC(=O)CCc1ccccc1 | 2200 nM | –
Cc1ccc(COc2cc(/C=C/C(=O)O)ccc2OC(=O)CCc2c(F)cc(F)cc2F)cc1 | 540 nM | –
CCOc1cc(/C=C/C(=O)O)ccc1OC(=O)CCc1ccccc1 | 970 nM | –
Cc1ccc(COc2cc(/C=C/C(=O)O)ccc2OC(=O)CCc2cccc(O)c2)cc1 | 910 nM | –
O=C(O)/C=C/c1ccc(OC(=O)CCc2ccccc2)c(OCc2ccc(F)cc2)c1 | 220 nM | –
CCCCOc1cc(/C=C/C(=O)O)ccc1OC(=O)CCc1ccccc1 | 420 nM | –
C/C=C/COc1cc(/C=C/C(=O)O)ccc1OC(=O)CCc1ccccc1 | 1100 nM | –
CC(C)COc1cc(/C=C/C(=O)O)ccc1OC(=O)CCc1ccccc1 | 560 nM | –
O=C(O)/C=C/c1ccc(OC(=O)CCc2ccccc2)c(OCc2cccc(F)c2)c1 | 110 nM | –
O=C(O)/C=C/c1ccc(OC(=O)CCc2ccccc2)c(OCc2ccccc2F)c1 | 320 nM | –
O=C(O)/C=C/c1ccc(OC(=O)CCc2ccccc2)c(OCc2ccccc2)c1 | 390 nM | –
Cc1ccc(COc2cc(/C=C/C(=O)O)ccc2OC(=O)CCc2ccccc2)cc1 | 110 nM | –
O=C(O)/C=C/c1ccc(OC(=O)CCc2ccc(F)cc2)c(OCc2cccc(F)c2)c1 | 540 nM | –
O=C(O)/C=C/c1ccc(OC(=O)CCc2cccc(O)c2)c(OCc2cccc(F)c2)c1 | 800 nM | –
Cc1ccc(COc2cc(/C=C/C(=O)O)ccc2OC(=O)CCc2ccc(F)cc2)cc1 | 470 nM | –
Cc1ccc(COc2cc(/C=C/C(=O)O)ccc2OC(=O)CCc2cccc(F)c2)cc1 | 160 nM | –
